Reference: patent US20110207685A1, “Oral Formulations of Chemotherapeutic Agents” (priority 2008, published 2011)
Values after ≈ are worked out from the molar mass of the structure shown. Like-named read-outs stand apart in the source and are kept apart here.

What was measured:
HT29 cells = experiment: In vitro cytotoxicity on HT29 cells; type: cell-based; settings: Homo sapiens
[1] = MTTD study, one administration per week during three weeks; type: in vivo, mice; settings: J = 0, 7, 14
Description: The schedule of the MTTD studies was one administration per week during three weeks. Each dose was tested on a group of 3 animals and the animals were monitored for 2 weeks after the end of the last treatment, clinical toxicity signs were observed and the animals weight taken every two days.

[2] = Oral MTTD (tolerance) study on xenografted mice; type: in vivo; settings: for Clinical symptoms: po, J = 1 to 5, mice with s.c. HT-29 tumor
Description: A tolerance and efficacy study on xenografted mice, in order to mimic as close as possible the in vivo model of colonic tumor, was carried out. As xenografted mice are very sensitive, the MTTD and efficacy study was done on mice with a subcutaneously implanted HT-29 colorectal human tumor cells.

[3] = Tolerance study (Step 1), relative body weight; type: in vivo, nude mice; settings: oral IRN alone group (100 mg/kg po qd×5)
Description: When subcutaneous HT29 xenografts are detectable and reach a mean tumor volume of 150 mm3, groups of mice are randomly affected to the treatments. Mice without tumors were eliminated.
Mice in the control group received vehicle under a 750 μl volume.
Toxicity of the different treatments are determined as: body weight loss percent (% BWL max)=100−(mean BWx/mean BW1x 100), where BWx is the mean BW at the day of maximal loss during the treatment and BW1 is the mean BW on the 1st day of treatment.
All animals are weighted during the whole treatment period, in order to adjust the volume of drug administration and to calculate the percent body weight loss due to the different treatments.

in vivo = settings: mouse, plasma
Description: Three mice were used per time-point. Only one sampling was performed on the control group.

physchem = settings: phosphate buffer (control for the cyclodextrin mixtures), aqueous buffer
[4] = free drug; cited from earlier work

Which results are given for `CCc1c2c(nc3ccc(OC(=O)N4CCC(N5CCCCC5)CC4)cc13)-c1cc3c(c(=O)n1C2)COC(=O)[C@]3(O)CC` [IRN, Irinotecan]?
IC50 (HT29 cells; HT-29, 96 h, read-out: IC50 [IRN], experiment GF411, HT29 cells, 4 days contact, as IRN concentration): 0.75 µg/mL (≈ 1.28 µM); IC50 (HT29 cells; HT-29, 96 h, read-out: IC50 [IRN], experiment GF464, HT29 cells, 4 days contact, as IRN concentration): 0.8 µg/mL (≈ 1.36 µM); IC50 (HT29 cells; HT-29, 96 h, read-out: IC50 [IRN], experiment GF522, HT29 cells, 4 days contact, as IRN concentration): 0.85 µg/mL (≈ 1.45 µM); IC50 (HT29 cells; HT-29, read-out: Mean IC 50 [IRN], mean of three experiments, HT29 cells, as IRN concentration): 0.8 µg/mL (≈ 1.36 µM); Clinical symptoms ([1]; iv, 25 mg/kg BW): No clinical sign; Clinical symptoms ([1]; po, 200 mg/kg BW): No clinical sign; toxicity / tolerance ([2]; orally every day for 5 days, xenografted mice): induced an important weight loss; Clinical symptoms ([2]; 100 mg/kg BW): Weight loss, but mice; Clinical symptoms ([2]; 200 mg/kg BW): Important weight loss; body weight loss [3]: more than 15%; AUC (in vivo; iv, 20 mg/kg): 1280 ng·h/mL; bioavailability (in vivo; oral, 100 mg/Kg): 27.1%; AUC (in vivo; po, 100 mg/kg): 1740 ng·h/mL; Cmax (in vivo; po, 100 mg/kg): 477 ng/mL; Tmax (in vivo; po, 100 mg/kg): 2.06 h

For `CC(=O)O[C@@]12CO[C@@H]1C[C@H](O)[C@@]1(C)C(=O)[C@H](O)C3=C(C)[C@@H](OC(=O)[C@H](O)[C@@H](NC(=O)OC(C)(C)C)c4ccccc4)C[C@@](O)([C@@H](OC(=O)c4ccccc4)[C@H]21)C3(C)C` [docetaxel], which solubility (physchem) is on record?
The solubility was 1.9 ± 0.1 µg/mL (≈ 2.35 µM).

For `COc1cccc2c1C(=O)c1c(O)c3c(c(O)c1C2=O)C[C@@](O)(C(=O)CO)C[C@@H]3O[C@H]1C[C@H](N)[C@H](O)[C@H](C)O1` [doxorubicin, Doxorubicin], which “oral bioavailability compare to i. v. bioavailability” value [4] is on record?
Its value is “about 5%”.
